# Experimental data reported in patent US10966951B2, “Compositions and methods for lowering triglycerides in a subject having reduced kidney function” (Amarin Pharmaceuticals Ireland Limited, priority 2017, dated 2021).
# Key:
# Format in all cases: in vivo, human
# [1] = tested on: patients with reduced kidney function (eGFR<90 mL/min/1.73 m^2) and hsCRP≥2.0 mg/L; assay: Post-hoc ANCHOR analysis, reduced kidney function and hsCRP≥2.0 mg/L (Example 6); conditions: 4 g/day
# Method: CVD-related (e.g., atherogenic) parameters were analyzed in a post-hoc study of 152 patients from the multi-center, placebo-controlled, randomized double-blind, 12-week study described in Example 1. These 152 patients have reduced kidney function (e.g., eGFR<90 mL/min/1.73 m^2 for ≥3 months) and hsCRP≥2.0 mg/L.
# 72 patients were randomized to E-EPA and 80 patients were randomized to placebo. In total, atherogenic parameters were analyzed in all 152 patients, 54% of which were male and 99% of which were white. The mean age of the 152 patients was 64 years old.
# The primary objective of this post-hoc study, was to determine if and how 4 g of daily of >96% E-EPA, compared to placebo, affects patients with reduced kidney function, elevated hsCRP (e.g, hsCRP≥2.0 mg/L), and high triglyceride levels. The secondary objective was to determine if and how 4 g daily of >96% E-EPA, compared to placebo, affected CVD-related parameters in patients with a high risk for CVD and fasting TG levels 200 mg/dL and <500 mg/dL, despite treatment to LDL-C goal on statin therapy. These CVD-parameters include lipid levels, lipoprotein levels, and inflammatory markers, such as TC, LDL-C, HDL-C, vLDL-C, vLDL-TG, RLP-C, non-HDL-C, Apo B, Apo C-III, Lp-PLA, hsCRP, and ox-LDL, and in plasma and RBC EPA concentration. CVD-parameters were analyzed for median difference in percent change from baseline to week 12 in subjects receiving 4 g/day of E-EPA and those receiving the placebo.
# The median difference in lipid/lipoprotein, apolipoprotein, and inflammatory parameters were determined from baseline to week 12 for 4/g day of E-EPA compared to placebo.
# [2] = Essential fatty acid parameters in plasma, 6-week AAMI study (Example 2)
# Method: (§1) A single-center, 6-week, double-blind, randomized, parallel-group, placebo-controlled, dose-ranging pilot study was performed to evaluate the efficacy, tolerability, and safety of >96% E-EPA in subjects with subjective and objective memory impairment according to generally accepted criteria for Age-Associated Memory Impairment (“AAMI”). The primary objective of the study was to determine the effect of >96% E-EPA 1 g, 2 g, and 4 g daily, compared to placebo, on cognitive performance in subjects with AAMI.
# (§2) Ninety-four subjects were randomized into one of six groups: 1 g E-EPA daily (n=23), 2 g E-EPA daily (n=24), 4 g E-EPA daily (n=24), 1 g placebo daily (n=7), 2 g placebo daily (n=8), and 4 g placebo daily (n=8). E-EPA was provided as 500 mg soft gel capsules containing >96% E-EPA and 0.2% dl-α-tocopherol as an antioxidant. Placebo capsules contained 467 mg of liquid paraffin and 0.2% dl-α-tocopherol. Ninety-one subjects completed the study. Two subjects in the 2 g E-EPA group and one subject in the 2 g placebo group discontinued the study.
# (§3) Blood samples (10 mL) were collected at Visit 1 (screening) and at Visits 4, 5, and 6. Analysis was performed by MSR Lipid Analysis, Scottish Crop Research Institute, Dundee, UK. The screening sample acted as baseline for the EFA measurements. Lipid was extracted from plasma, serum, and RBC suspensions and converted into fatty acid methyl esters which were analyzed by gas chromatography to give fatty acid profiles as micrograms fatty acid per gram of sample ([…]) and normalized area percent.
# (§4) RBC and plasma EFA data were collected at baseline, Day 14, 28, and 42 and summarized by visit for each treatment group. Change from baseline and percent change from baseline were also summarized. ANCOVA comparison of E-EPA dose groups and E-EPA versus placebo was performed.
# [3] = Essential fatty acid parameters in RBC, 6-week AAMI study (Example 2)
# Method: as §1, §2, §3, §4
smiles,measurement,setting,value
"CC/C=C\C/C=C\C/C=C\C/C=C\C/C=C\CCCC(=O)OCC [E-EPA, ethyl eicosapentaenoate]",albumin after 12 weeks,[1]; after 12 weeks,4.4 g/dL
same,serum creatinine after 12 weeks,[1]; after 12 weeks,0.9 mg/dL
same,albumin before treatment,[1]; before the 12 weeks,4.5 g/dL
same,eGFR before treatment,[1]; before the 12 weeks,72.4 mL/min/1.73 m^2
same,serum creatinine before treatment,[1]; before the 12 weeks,0.9 mg/dL
same,"EPA, DPAn-3, and EPA/AA ratio values from baseline to Day 42","[2]; plasma and RBC, 1, 2, and 4 g treatment groups",increased substantially
same,"AA Mean change from Baseline, Mean (SD)","[2]; plasma, 1 g daily, Day 14",−9.7 (22.20) μg/g
same,"DHA Mean change from Baseline, Mean (SD)","[2]; plasma, 1 g daily, Day 14",−6.4 (13.30) μg/g
same,"EPA/AA Mean change from Baseline, Mean (SD)","[2]; plasma, 1 g daily, Day 14",0.3 (0.4)
same,"DHA Mean change from Baseline, Mean (SD)","[2]; plasma, 1 g daily, Day 28",−6.6 (15.53) μg/g
same,"EPA/AA Mean change from Baseline, Mean (SD)","[2]; plasma, 1 g daily, Day 28",0.3 (0.20)
same,"AA Mean change from Baseline, Mean (SD)","[2]; plasma, 1 g daily, Day 42",−8.7 (31.35) μg/g
same,"DGLA Mean change from Baseline, Mean (SD)","[2]; plasma, 1 g daily, Day 42",−9.4 (9.41) μg/g
same,"DHA Mean change from Baseline, Mean (SD)","[2]; plasma, 1 g daily, Day 42",−5.4 (18.17) μg/g
same,"EPA/AA Mean change from Baseline, Mean (SD)","[2]; plasma, 1 g daily, Day 42",0.3 (0.24)
same,EPA/AA Baseline Mean (SD),"[2]; plasma, 1 g daily",0.2 (0.14)
same,"AA LS Mean, 1 g versus 4 g","[2]; plasma, 1 g versus 4 g",4.2 µg/g
same,"DGLA LS Mean, 1 g versus 4 g","[2]; plasma, 1 g versus 4 g",3.7 µg/g
same,"DHA LS Mean, 1 g versus 4 g","[2]; plasma, 1 g versus 4 g",-0.8 µg/g
same,"EPA/AA LS Mean, 1 g versus 4 g","[2]; plasma, 1 g versus 4 g",−0.66
same,"DHA Mean change from Baseline, Mean (SD)","[2]; plasma, 2 g daily, Day 14",−5.4 (14.29) μg/g
same,"EPA/AA Mean change from Baseline, Mean (SD)","[2]; plasma, 2 g daily, Day 14",0.6 (0.23)
same,"DHA Mean change from Baseline, Mean (SD)","[2]; plasma, 2 g daily, Day 28",−8.1 (15.82) μg/g
same,"EPA/AA Mean change from Baseline, Mean (SD)","[2]; plasma, 2 g daily, Day 28",0.8 (0.35)
same,"DHA Mean change from Baseline, Mean (SD)","[2]; plasma, 2 g daily, Day 42",−6.0 (16.69) μg/g
same,"EPA/AA Mean change from Baseline, Mean (SD)","[2]; plasma, 2 g daily, Day 42",0.7 (0.29)
same,EPA/AA Baseline Mean (SD),"[2]; plasma, 2 g daily",0.2 (0.12)
same,"DGLA LS Mean, 2 g versus 4 g","[2]; plasma, 2 g versus 4 g",2.5 µg/g
same,"DHA LS Mean, 2 g versus 4 g","[2]; plasma, 2 g versus 4 g",1.5 µg/g
same,"EPA/AA LS Mean, 2 g versus 4 g","[2]; plasma, 2 g versus 4 g",−0.41
same,"EPA/AA Mean change from Baseline, Mean (SD)","[2]; plasma, 4 g daily, Day 14",1.1 (0.28)
same,"EPA/AA Mean change from Baseline, Mean (SD)","[2]; plasma, 4 g daily, Day 28",1.3 (0.42)
same,"EPA/AA Mean change from Baseline, Mean (SD)","[2]; plasma, 4 g daily, Day 42",1.3 (0.45)
same,EPA/AA Baseline Mean (SD),"[2]; plasma, 4 g daily",0.2 (0.07)
same,"AA Mean change from Baseline, Mean (SD)","[3]; 1 g daily, Day 14",−8.1 (21.95) μg/g
same,"DGLA Mean change from Baseline, Mean (SD)","[3]; 1 g daily, Day 14",−2.7 (3.82) μg/g
same,"DHA Mean change from Baseline, Mean (SD)","[3]; 1 g daily, Day 14",−4.6 (9.76) μg/g
same,"EPA/AA Mean change from Baseline, Mean (SD)","[3]; 1 g daily, Day 14",0.1 (0.04)
same,"AA Mean change from Baseline, Mean (SD)","[3]; 1 g daily, Day 28",−17.0 (20.69) μg/g
same,"DGLA Mean change from Baseline, Mean (SD)","[3]; 1 g daily, Day 28",−3.8 (3.31) μg/g
same,"DHA Mean change from Baseline, Mean (SD)","[3]; 1 g daily, Day 28",−6.4 (11.57) μg/g
same,"EPA/AA Mean change from Baseline, Mean (SD)","[3]; 1 g daily, Day 28",0.1 (0.05)
same,"DGLA Mean change from Baseline, Mean (SD)","[3]; 1 g daily, Day 42",−3.5 (4.51) μg/g
same,"DHA Mean change from Baseline, Mean (SD)","[3]; 1 g daily, Day 42",−7.0 (12.20) μg/g
same,"EPA/AA Mean change from Baseline, Mean (SD)","[3]; 1 g daily, Day 42",0.1 (0.06)
same,DGLA Baseline Mean (SD),[3]; 1 g daily,23.0 (5.19) μg/g
same,EPA/AA Baseline Mean (SD),[3]; 1 g daily,0.1 (0.07)
same,"AA LS Mean, 1 g versus 4 g",[3]; 1 g versus 4 g,8.4 µg/g
same,"DGLA LS Mean, 1 g versus 4 g",[3]; 1 g versus 4 g,1.5 µg/g
same,"DHA LS Mean, 1 g versus 4 g",[3]; 1 g versus 4 g,1.0 µg/g
same,"EPA/AA LS Mean, 1 g versus 4 g",[3]; 1 g versus 4 g,−0.18
same,"AA Mean change from Baseline, Mean (SD)","[3]; 2 g daily, Day 14",−3.1 (25.84) μg/g
same,"DGLA Mean change from Baseline, Mean (SD)","[3]; 2 g daily, Day 14",−2.6 (3.54) μg/g
same,"DHA Mean change from Baseline, Mean (SD)","[3]; 2 g daily, Day 14",−2.0 (9.46) μg/g
same,"EPA/AA Mean change from Baseline, Mean (SD)","[3]; 2 g daily, Day 14",0.2 (0.04)
same,"DGLA Mean change from Baseline, Mean (SD)","[3]; 2 g daily, Day 28",−4.5 (3.58) μg/g
same,"DHA Mean change from Baseline, Mean (SD)","[3]; 2 g daily, Day 28",−6.2 (9.34) μg/g
same,"EPA/AA Mean change from Baseline, Mean (SD)","[3]; 2 g daily, Day 28",0.02 (0.06)
same,"DGLA Mean change from Baseline, Mean (SD)","[3]; 2 g daily, Day 42",−5.3 (3.65) μg/g
same,"DHA Mean change from Baseline, Mean (SD)","[3]; 2 g daily, Day 42",−6.3 (9.42) μg/g
same,"EPA/AA Mean change from Baseline, Mean (SD)","[3]; 2 g daily, Day 42",0.3 (0.06)
same,DGLA Baseline Mean (SD),[3]; 2 g daily,23.0 (5.76) μg/g
same,EPA/AA Baseline Mean (SD),[3]; 2 g daily,0.1 (0.06)
same,"AA LS Mean, 2 g versus 4 g",[3]; 2 g versus 4 g,9.8 µg/g
same,"DGLA LS Mean, 2 g versus 4 g",[3]; 2 g versus 4 g,1.5 µg/g
same,"DHA LS Mean, 2 g versus 4 g",[3]; 2 g versus 4 g,1.0 µg/g
same,"EPA/AA LS Mean, 2 g versus 4 g",[3]; 2 g versus 4 g,−0.11
same,"DGLA Mean change from Baseline, Mean (SD)","[3]; 4 g daily, Day 14",−5.3 (4.10) μg/g
same,"DHA Mean change from Baseline, Mean (SD)","[3]; 4 g daily, Day 14",−6.9 (9.13) μg/g
same,"EPA/AA Mean change from Baseline, Mean (SD)","[3]; 4 g daily, Day 14",0.3 (0.07)
same,"DGLA Mean change from Baseline, Mean (SD)","[3]; 4 g daily, Day 28",−7.1 (4.63) μg/g
same,"DHA Mean change from Baseline, Mean (SD)","[3]; 4 g daily, Day 28",−8.7 (11.63) μg/g
same,"EPA/AA Mean change from Baseline, Mean (SD)","[3]; 4 g daily, Day 28",0.4 (0.11)
same,"DGLA Mean change from Baseline, Mean (SD)","[3]; 4 g daily, Day 42",−8.0 (4.98) μg/g
same,"EPA/AA Mean change from Baseline, Mean (SD)","[3]; 4 g daily, Day 42",0.4 (0.14)
same,DGLA Baseline Mean (SD),[3]; 4 g daily,24.0 (5.77) μg/g
same,EPA/AA Baseline Mean (SD),[3]; 4 g daily,0.1 (0.04)
